Data: patent US20110117200A1 (ACTAVIS GROUP PTC EHF, priority 2008, published 2011)
Where a name gives a salt, the structure may show the parent alone.

What was measured:
[1] = sunflower oil dispersant; for Particle size (D50): size below which 50% of the particles by volume are found; for Particle size (D90): size below which 90% of the particles by volume are found
Procedure: Particle Size Distribution (PSD)” is determined by laser diffraction in a Malvern Master Sizer 2000 equipment or its equivalent: Measurement conditions:
As used herein, “Particle Size Distribution (P.S.D)” means the cumulative volume size distribution of equivalent spherical diameters as determined by laser diffraction in Malvern Master Sizer 2000 equipment or its equivalent.
As used herein, Dx means that X percent of the particles have a diameter less than a specified diameter D. Thus, a D90 or d(0.9) of less than 300 microns means that 90 volume-percent of the particles in a composition have a diameter less than 300 microns.
The important characteristics of the PSD were the (D90), which is the size, in microns, below which 90% of the particles by volume are found, and the (D50), which is the size, in microns, below which 50% of the particles by volume are found.

[2] = cited from earlier work
[3] = molecular target: B-form of the enzyme monoamine oxidase (MAO-B) (Homo sapiens, UniProt P27338); conditions: qualitative statement in the background; cited from earlier work
Chain of B-form of the enzyme monoamine oxidase (MAO-B) (P27338 whole entry, species assumed): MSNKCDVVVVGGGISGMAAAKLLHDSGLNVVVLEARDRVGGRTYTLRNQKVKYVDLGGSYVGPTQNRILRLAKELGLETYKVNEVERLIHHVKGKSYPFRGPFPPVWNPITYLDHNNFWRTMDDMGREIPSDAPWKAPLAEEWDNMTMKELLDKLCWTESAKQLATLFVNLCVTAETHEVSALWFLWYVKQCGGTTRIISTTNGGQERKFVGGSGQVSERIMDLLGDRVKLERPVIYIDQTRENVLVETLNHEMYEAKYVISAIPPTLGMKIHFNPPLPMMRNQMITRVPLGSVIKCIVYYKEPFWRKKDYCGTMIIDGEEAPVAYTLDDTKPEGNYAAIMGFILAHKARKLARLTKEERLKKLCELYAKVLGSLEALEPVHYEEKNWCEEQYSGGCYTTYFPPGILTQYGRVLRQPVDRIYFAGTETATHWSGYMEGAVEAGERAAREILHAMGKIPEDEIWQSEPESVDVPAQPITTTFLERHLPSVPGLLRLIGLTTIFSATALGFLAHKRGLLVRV

| SMILES | Particle size (D50) [1] | Particle size (D90) [1] | also measured |
| --- | --- | --- | --- |
| C#CCN[C@@H]1CCc2ccccc21 [Example 1, rasagiline mesylate] | 663 microns | 1407 microns |  |
| C#CCN[C@@H]1CCc2ccccc21 [Example 2, rasagiline mesylate] | 864 microns | 1496 microns |  |
| C#CCN[C@@H]1CCc2ccccc21.CS(=O)(=O)O [Rasagiline mesylate, rasagiline mesylate] |  |  | Solubility in ethanol ([2]; ethanol): freely soluble; Solubility in isopropanol ([2]; isopropanol): sparingly soluble; Solubility in water ([2]; water): freely soluble |
| C#CCN[C@@H]1CCc2ccccc21 [Rasagiline, R(+)—N-propargyl-1-aminoindan] |  |  | Inhibition of MAO-B [3]: selective inhibitor |

Now from value to molecule, other results behind:

| Particle size (D50) [1] | Particle size (D90) [1] | SMILES | also measured |
| --- | --- | --- | --- |
|  | less than 300 microns | C#CCN[C@@H]1CCc2ccccc21 [Example 3, rasagiline mesylate] |  |
|  | less than 400 microns | C#CCN[C@@H]1CCc2ccccc21 [Example 4, rasagiline mesylate] |  |
